In US20240131499A1, “BIOMIMETIC CATALYSTS FOR DIVERSE INDUSTRIAL APPLICATIONS IN CHEMICAL REACTIONS” (Wisconsin Alumni Research Foundation, priority 2022, published 2024):
“And” between values parts separate entries of the source, which are not always exact repeats. Identical values can stand only once. One block for each compound: values may come before it.

Tests used:
[1] = Reaction kinetics analysis for lactose hydrolysis; details: 100° C.
Procedure: The glass vial was capped to prevent the solvent from evaporation, and the hydrolysis reaction was carried out at 100° C. in an oil bath (120 and 90° C. were used to measure activation energies) with 600-800 rpm stirring. […] 0.105 g (=0.1 mL) of liquid sample solution was collected at each day (every 18-26 h) for 5 days and diluted in 0.399 g (=0.4 mL) of MQ water for the reaction kinetics analysis, and the diluted sample was filtered by syringe filter (20 μm pore) and analyzed by HPLC.
(§1) The chemical concentrations of hydrolyzed lactose solutions were quantified by high performance liquid chromatography (HPLC) analysis. The hydrolyzed solutions with immobilized catalysts were centrifuged (2500 rpm, 20 min) to separate the immobilized catalyst in the aqueous phase solution. 0.105 g (0.1 mL) of the aqueous solution was diluted in 0.399 g (0.4 mL) of Milli-Q water (5 times dilution by volume) to analyze the concentrations of lactose, glucose, galactose, and HMF as one of by-products by glucose degradation. […] The temperature of the HPLC column was maintained at 50° C., and the flow rate of the mobile phase (pH 2 water, acidified by sulfuric acid) was 0.6 mL/min.

[2] = Active site analysis: rate constants for the active sites in lactose hydrolysis; details: 100° C.; for rate constant for the active site G1H (kG1H): homogeneous catalyst
Procedure: Addition of Ca(OAc)2 for the investigation of catalytic active sites: The rate constants for H^+ and non-dissociated carboxylic acid from the acid catalysts were determined by combining results from separate reaction kinetics experiments. […] In the presence of different amounts of Ca(OAc)2, the predicted rates can be calculated by using a linear combination of the rate constants and the concentrations of corresponding active sites (equation in FIG. 1C). […] The kG1H value for each biomimetic catalyst was then used to calculate the turnover frequency (TOF=kG1H·[Lactose]0) for comparison of catalytic activities from the engineered biomimetic catalysts in FIG. 2A. […] This analysis accounts for the contributions from the catalytic activity of H^+ (pH effect) and the catalytic activity of the active site (G1H).

[3] = Solubility of the organocatalyst in water; format: physicochemical; details: in water at 100° C.; read-out: solubility limit
Description: Immobilization of the organocatalyst on a solid support material can prevent catalyst precipitation by distributing the organocatalyst on the surface of the support. […] Catalytic reaction over the immobilized organocatalyst is analogous to the mechanism of enzymatic reactions. For instance, an organocatalyst complex on a well-defined support with controlled surface properties can act in an analogous fashion as an active site in the channel of an enzyme. Reactants bind on the G1H sites by the interaction between surface functionality on the support and the organocatalyst. Lower loading of catalyst on a support enhances the catalytic activity (FIGS. 16A and 1D) by forming a more uniform distribution of the complex on the support.

[4] = at 100° C.; extrapolated; cited from earlier work
[5] = Lactose hydrolysis in the presence of Ca(OAc)2; details: 100° C.
Procedure: The glass vial was capped to prevent the solvent from evaporation, and reaction was carried out at 100° C. in an oil bath with 800 rpm stirring. 0.105 g (0.1 mL) of liquid sample solution was collected each day (every 18-26 h) for 5 days and diluted in 0.399 g (0.4 mL) of MQ water for the reaction kinetics analysis. The diluted sample was analyzed by HPLC. Experimentally measured rates at different concentrations of Ca(OAc)2 were analyzed by the kinetic model (Equations 1-4).
as §1

[6] = homogeneous (non-immobilized) catalyst, amino acids 82-84 mM, 95% confidential intervals

- suppression of kd,app/kapp compared to glutamic acid [1]: 55.2%
- kd,app, apparent rate constant for glucose degradation [1, 6]: 6.11e-07 ± 2.2e-07 s⁻¹
Compound: O=C(O)CCC(C(=O)O)N1C(=O)CCC1=O (centres unmarked) [GA-MAL-H]
- kapp, apparent rate constant for lactose hydrolysis [1, 6]: 0.0077 ± 0.0002 h⁻¹
- higher kG1H than kG1H for glutamic acid [2]: 31.9%
- rate constant for the active site G1H (kG1H) [2]: 0.000389 M⁻¹ s⁻¹

Compound: [H+] [H^+]
- rate constant for H^+ (kH+) ([2]; kapp=kH+·[H^+]): 0.0002639 M⁻¹ s⁻¹

- kd,app, apparent rate constant for glucose degradation ([1]; 37 mM homogeneous catalyst): 4.44e-07 ± 1.4e-07 s⁻¹
- kd,app, apparent rate constant for glucose degradation ([1]; 70 mM homogeneous catalyst): 2.78e-07 ± 1.7e-07 s⁻¹
- kd,app, apparent rate constant for glucose degradation [1, 6]: 4.44e-07 ± 1.4e-07 s⁻¹
- solubility [3]: ~37000 µM and ~27000 µg/mL
Compound: O=C(O)CCC(C(=O)O)N1C(=O)C2C(C1=O)C1(CCC(=O)CCC34CCC(CO)(O3)C3C(=O)N(C(CCC(=O)O)C(=O)O)C(=O)C34)CCC2(CO)O1 (centres unmarked) [PHAH-GA-MAL-H]
- kapp, apparent rate constant for lactose hydrolysis ([1]; 37 mM homogeneous catalyst): 0.0117 ± 0.0004 h⁻¹
- kapp, apparent rate constant for lactose hydrolysis ([1]; 70 mM homogeneous catalyst): 0.0103±0.0004 h^−
- kapp, apparent rate constant for lactose hydrolysis [1, 6]: 0.0117 ± 0.0004 h⁻¹
- higher kG1H than GA-MAL-H [2]: 74.2%
- kG1H relative to glutamic acid [2]: 2.3 times
- rate constant for the active site G1H (kG1H) [2]: 0.000681 M⁻¹ s⁻¹

Compound: CC(=O)O [acetic acid]
- kapp, apparent rate constant for lactose hydrolysis [1, 6]: 0.0015 ± 0.0001 h⁻¹
- rate constant for the non-dissociated acetic acid (kAA) ([2]; kapp=kH+·[H^+]+kAA·[AA]): 1.42e-06 M⁻¹ s⁻¹

Compound: N[C@@H](CCC(=O)O)C(=O)O [glutamic acid, L-glutamic acid]
- kapp, apparent rate constant for lactose hydrolysis [1, 6]: 0.0060 ± 0.0004 h⁻¹
- pKa,G1H (α-carboxylic acid) [4]: 2.24
- pKa,G2H (side-chain carboxylic acid) [4]: 4.55
- pKa,GNH (amine) [4]: 9.12
- Rate of lactose hydrolysis ([5]; [Ca(OAc)2] 24 mM): 0.0005 M/h
- kapp, apparent rate constant for lactose hydrolysis ([5]; [Ca(OAc)2] 24 mM): 0.0011 ± 0.0001 h⁻¹
- Rate of lactose hydrolysis ([5]; [Ca(OAc)2]=0 mM): 0.0026 M/h
- kapp, apparent rate constant for lactose hydrolysis ([5]; [Ca(OAc)2]=0 mM): 0.0060 ± 0.0004 h⁻¹
- Rate of lactose hydrolysis ([5]; [Ca(OAc)2]=5 mM): 0.0016 M/h
- kapp, apparent rate constant for lactose hydrolysis ([5]; [Ca(OAc)2]=5 mM): 0.0037 ± 0.0002 h⁻¹
- Rate of lactose hydrolysis ([5]; [Ca(OAc)2]=16 mM): 0.0007 M/h
- kapp, apparent rate constant for lactose hydrolysis ([5]; [Ca(OAc)2]=16 mM): 0.0016 ± 0.0001 h⁻¹
- rate constant for the active site G1H (kG1H) [2]: 0.00029567 M⁻¹ s⁻¹ and 0.000294 M⁻¹ s⁻¹

Compound: O=S(=O)(O)O [sulfuric acid]
- kapp, apparent rate constant for lactose hydrolysis [1, 6]: 0.1615 ± 0.0075 h⁻¹
- kd,app, apparent rate constant for glucose degradation [1, 6]: 1.08e-06 ± 5.42e-06 s⁻¹

- kd,app, apparent rate constant for glucose degradation [1, 6]: 1.4e-07 ± 3.22e-06 s⁻¹
Compound: N[C@@H](Cc1ccc(O)cc1)C(=O)O [tyrosine, L-tyrosine]
- kapp, apparent rate constant for lactose hydrolysis [1, 6]: 0.0004 ± 0.0001 h⁻¹
